Assays:
[1] = tested on: Lucilia cuprina larvae; experiment: Growth and survival of first instar sheep blowfly larvae on culture medium with inhibitor; format: in vivo; details: for % Growth Incubation / Average Larval Weight: Table 2.3; for Average Larval Weight: control 9.08
[2] = tested on: L. cuprina eggs; experiment: Egg hatch of L. cuprina on liver in vitro; format: in vivo, Lucilia cuprina; details: 24 hours at 35° C., control 71
Method: L. cuprina eggs were placed on pieces of liver (0.9 g) which were then placed in individual wells of a 24-well tissue culture plate. Phosphate buffered saline (PBS, 0.1 ml) containing inhibitors at set concentrations were added to each well with 30 freshly laid and sterilised eggs of L. cuprina. The culture plate was then maintained in a sterile environment at 35° C. for 24 hours, after which time the percentage hatch was assessed.

[3] = tested on: Heliothis punctigens larvae; experiment: Growth and survival of cotton budworm larvae fed an artificial diet; format: in vivo; details: 10 days; for % Alive: control 70.0; for Average Laval Weight: control 165.4
Method: 1. The Haricot beans were cooked in a microwave for 40 minutes. 2. Agar was added to the hot water and stirred on a hot plate until almost boiling. 3. The haricot beans, agar mix, yeast and wheat germ was blended in an electric mixer for 3 minutes. 4. When the temperature has dropped to 60°C., the acids were added and mixed with the media. […] Inhibitor solutions or an equal volume of water were placed into sterilized glass tubes at designated concentrations. The artificial media was added to each tube (1.5 ml) using a sterile 10 ml syringe. First instar Heliothis punctigens larvae (1 larvae per tube) were added to the glass tubes and the tubes were capped. The tubes were incubated for 10 days at 25° C. The larvae were killed by placing the glass tubes at -70° C. for 24 hours, and then individually weighed. Percentage inhibition was calculated by comparison to control larvae.

[4] = tested on: Ctenocephalides felis; experiment: Development of cat flea eggs in dried blood diets; format: in vivo; details: Day 16
Method: Blood was collected from the jugular vein of a five year old merino sheep that had not been treated with an ectoparasitic agent for 18 months. The blood was collected into a 100 ml plastic bottle containing 0.8 ml of heparin and was maintained at 4° C. Inhibitors were pre-weighed into sterile 5 ml plastic vials and 4.5 ml of blood added. The samples were mixed, placed at -70° C. for 24 hours, then freeze-dried. The freeze-dried samples were sieved through a stainless steel 63 micron sieve, and placed into sterile 5 ml plastic vials (0.15 g/per tube). Four flea eggs were placed into each vial, and a sheet of tissue paper fastened by an elastic band was fitted to the top of each vial. The vials were incubated at 25° C. and 70-80% R H for 6 days. Vermiculite was then added to each vial to provide a supporting medium for the fleas to pupate and the tubes incubated at 25° C. and 70-80% R H, for a further 10 days. Ten control vials and three vials of each treatment were tested.
At the conclusion of the incubation period the vials were placed at -20° C. for 24 hours to kill the fleas. The number of eggs hatched and the life-cycle state was recorded.

[5] = tested on: Teleogryllus commodus; experiment: Mortality of black field cricket nymphs on treated cabbage leaf disks; format: in vivo; details: 30 mM; after 7 days
Method: (i) Stock solutions of inhibitors and control solutions were prepared as aqueous solutions or suspensions as outlined in Table 6.1.
(ii) Mortality was assessed by commencing the study with 1st instar nymphs.
(iii) Cabbage leaf disks (5×8 mm diameter disks/treatment) were smeared with 100 μl of inhibitor or control stock solutions and allowed to dry. Disks were placed singly in 40 mm petri dishes, together with a moist cotton wool pas as water supply and a piece of fluted plastic for shelter.
(iv) Ten nymphs were placed on each disc and the dishes incubated at 25° C.
(v) Mortality was assessed daily and any dead individuals removed.

[6] = tested on: Bovicola ovis (Hartley strain); experiment: Survival of sheep lice on inhibitor treated wool; format: in vivo; details: of 10 lice
[7] = tested on: Tribolium castaneum; experiment: Growth and survival of Tribolium castaneum in treated flour; format: in vivo; details: Day 6; all dose levels
Method: Insects were cultured in cleaned, ground and sieved wholemeal flour made from organic wheat. Inhibitors from bottles of pre-weighed material were dry-mixed with the flour and residual inhibitor rinsed from bottles with a small volume of water. Rinse water was added to the flour and the mixture re-ground. The impregnated flour was transferred to a 20 mL vial and mixed thoroughly by shaking and inverting. Adults of T. castaneum were allowed to oviposit on flour, eggs were sifted from the flour and transferred one by one with a single hair to microwell tubes containing a small amount of flour. Each level of treatment was performed in triplicated using 32 wells/replicate. Assays were performed in triplicated. Cultures were incubated at 30° C. and 55% R H. After 6 days each replicate of 32 wells was combined, the larvae counted and the numbers compared with numbers in the control (no inhibitor) treatment. Larvae were classified as "small" if appreciably smaller than reference larvae, or abnormal if unusual behaviour or formation were observed (eg. twisting or twisted larvae). Test inhibitors and dose rates were the same as those used in Example 4.

[8] = tested on: O. surinamensis larvae; experiment: Weight reduction of Oryzaephylus surinamensis larvae in treated flour; format: in vivo
Method: Insects were cultured in cleaned, ground and sieved wholemeal flour made from organic wheat. Inhibitors from bottles of pre-weighed material were dry-mixed with the flour and residual inhibitor rinsed from bottles with a small volume of water. Rinse water was added to the flour and the mixture re-ground. The impregnated flour was transferred to a 20 mL vial and mixed thoroughly by shaking and inverting.
Adults of T. castaneum were allowed to oviposit on flour, eggs were sifted from the flour and transferred one by one with a single hair to microwell tubes containing a small amount of flour. Each level of treatment was performed in triplicated using 32 wells/replicate. Assays were performed in triplicated. Cultures were incubated at 30° C. and 55% R H.
The bioassay for this insect was outlined for T. castaneum, except incubations were conducted at 32.5° C. and 70% R H. After 8 days the insects were sieved from the flour and weighed.

O=C(O)CN(CCN(CC(=O)O)CC(=O)O)CC(=O)O [EDTA, ethylene diamine tetraacetic acid]
Effect on larval growth, summary in words ([1]; Example 1, Table 1.2): effective growth inhibitors
inhibition at 5000 µM ([1]; Lucilia cuprina, first instar larvae, 5 mM): 84%
% Growth Incubation ([1]; 0.25 mM): -6.6%
Average Larval Weight ([1]; 0.25 mM): 9.68 10^-4 g
% Growth Incubation ([1]; 0.50 mM): 39.8%
Average Larval Weight ([1]; 0.50 mM): 5.47 10^-4 g
% Growth Incubation ([1]; 1.0 mM): 69.7%
Average Larval Weight ([1]; 1.0 mM): 2.75 10^-4 g
% Growth Incubation ([1]; 1.5 mM): 51.2%
Average Larval Weight ([1]; 1.5 mM): 4.43 10^-4 g
% Growth Incubation ([1]; 2.0 mM): 72.4%
Average Larval Weight ([1]; 2.0 mM): 2.51 10^-4 g
Larval survival ([1]; first instar larvae, 10 mM): All killed
% Hatch ([2]; 2 mM): 10%
% Hatch ([2]; 5 mM): 0%
% Hatch ([2]; 10 mM): 10%
% Alive ([3]; 2.5 mM): 50.0%
Average Laval Weight ([3]; 2.5 mM): 123.6 mg
% Alive ([3]; 5.0 mM): 33.3%
Average Laval Weight ([3]; 5.0 mM): 9.25 mg
% Alive ([3]; 10.0 mM): 67.0%
Average Laval Weight ([3]; 10.0 mM): 4.75 mg
inhibition at 2500 µM ([3]; Heliothis, 240 h, 2.5 mM, read-out: % Growth Inhibition): 25.3%
inhibition at 5000 µM ([3]; Heliothis, 240 h, 5.0 mM, read-out: % Growth Inhibition): 94.4%
inhibition at 10000 µM ([3]; Heliothis, 240 h, 10.0 mM): 97.1%
Percentage of Fleas Progressing Through to Pupation ([4]; 1.5625 mg in 4.5 ml of blood, control 97.5): 0%
Percentage of Fleas Progressing Through to Pupation ([4]; 3.125 mg in 4.5 ml of blood): 0%
Percentage of Fleas Progressing Through to Pupation ([4]; 6.25 mg in 4.5 ml of blood): 0%
Mortality [5]: 78%
Mortality (class) [5]: High (high 41-100%)
Number of Living Lice ([6]; Adult, 10 mM, 24 Hours at 35° C.): 2
Number of Living Lice ([6]; Adult, 20 mM, 24 Hours at 35° C.): 1
Number of Living Lice ([6]; Adult, third EDTA line, concentration not given, 24 Hours): 0
Number of Living Lice ([6]; instar 1, 10 mM, 24 Hours at 35° C.): 0
Number of Living Lice ([6]; instar 1, 20 mM, 24 Hours at 35° C.): 0
Number of Living Lice ([6]; instar 1, third EDTA line, concentration not given, 24 Hours): 0
Number of Living Lice ([6]; instar 2, 10 mM, 24 Hours at 35° C.): 2
Number of Living Lice ([6]; instar 2, 20 mM, 24 Hours at 35° C.): 1
Number of Living Lice ([6]; instar 2, third EDTA line, concentration not given, 24 Hours): 0
Number of Living Lice ([6]; instar 3, 10 mM, 24 Hours at 35° C.): 1
Number of Living Lice ([6]; instar 3, 20 mM, 24 Hours at 35° C.): 0
Number of Living Lice ([6]; instar 3, third EDTA line, concentration not given, 24 Hours): 0
Larval size classification [7]: small
inhibition at 10000 µM ([8]; 192 h, 10 mM, 8 days, relative to untreated larvae, read-out: Percentage Growth Inhibition): 32%
inhibition at 20000 µM ([8]; 192 h, 20 mM, 8 days, relative to untreated larvae, read-out: Percentage Growth Inhibition): 4%
inhibition at 30000 µM ([8]; 192 h, 30 mM, 8 days, relative to untreated larvae, read-out: Percentage Growth Inhibition): 28%
Growth inhibition, summary in words ([8]; text summary of Table 9.1): moderately effective

Source: patent publication US5985273A, “Biological control of insects” (priority 1994, dated 1999)
